Data from paper PMC9090415, “Discovery of small molecule inhibitors of Plasmodium falciparum apicoplast DNA polymerase” (Journal of Enzyme Inhibition and Medicinal Chemistry, 2022).

Target: P. falciparum apicoplast DNA polymerase (Pf-apPOL) (Plasmodium falciparum, UniProt Q8ILY1)
Test: Fluorescence-based high-throughput DNA polymerase assay (molecular beacon), primary screen and dose-response
Format: biochemical
Conditions: for DNA Pol: unit not given, 90 min, 10 µM; for % inhibition Apo pol 10' 2.5 / % inhibition Apo pol 10' 5 / % inhibition Apo pol 10' 10 / % inhibition Apo pol 10' 20 / % inhibition Apo pol 10' 40 / % inhibition Apo pol 10' 80: read at 10'; for % inhibition Apol 90' 2.5 / % inhibition Apol 90' 5 / % inhibition Apol 90' 10 / % inhibition Apol 90' 20 / % inhibition Apol 90' 40 / % inhibition Apol 90' 80 / % inhibition ApPOL 90' 2.5 / % inhibition ApPOL 90' 5 / % inhibition ApPOL 90' 10 / % inhibition ApPOL 90' 20 / % inhibition ApPOL 90' 40 / % inhibition ApPOL 90' 80: read at 90'; for % inhibition apPOL 180' 2.5 / % inhibition apPOL 180' 5 / % inhibition apPOL 180' 10 / % inhibition apPOL 180' 20 / % inhibition apPOL 180' 40 / % inhibition apPOL 180' 80: read at 180'; for % inhibition Apo pol 5' 2.5 / % inhibition Apo pol 5' 5 / % inhibition Apo pol 5' 10 / % inhibition Apo pol 5' 20 / % inhibition Apo pol 5' 40 / % inhibition Apo pol 5' 80: read at 5'; for % inhibition Apol 40' 2.5 / % inhibition Apol 40' 5 / % inhibition Apol 40' 10 / % inhibition Apol 40' 20 / % inhibition Apol 40' 40 / % inhibition Apol 40' 80: read at 40'
Method in brief: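 Single-point screening used 10 µM compound with 20 nM polymerase, 20 nM hairpin substrate and 6 µM dNTPs for 90 min at 25 °C. Confirmatory titrations (2.5–80 µM) followed fluorescence at three times, and IC50 was derived from a fit including a cooperativity term n.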

[1] = 186 hits, DNA Pol (screen value)

Chain of P. falciparum apicoplast DNA polymerase (Pf-apPOL) (Q8ILY1 entry or part of it): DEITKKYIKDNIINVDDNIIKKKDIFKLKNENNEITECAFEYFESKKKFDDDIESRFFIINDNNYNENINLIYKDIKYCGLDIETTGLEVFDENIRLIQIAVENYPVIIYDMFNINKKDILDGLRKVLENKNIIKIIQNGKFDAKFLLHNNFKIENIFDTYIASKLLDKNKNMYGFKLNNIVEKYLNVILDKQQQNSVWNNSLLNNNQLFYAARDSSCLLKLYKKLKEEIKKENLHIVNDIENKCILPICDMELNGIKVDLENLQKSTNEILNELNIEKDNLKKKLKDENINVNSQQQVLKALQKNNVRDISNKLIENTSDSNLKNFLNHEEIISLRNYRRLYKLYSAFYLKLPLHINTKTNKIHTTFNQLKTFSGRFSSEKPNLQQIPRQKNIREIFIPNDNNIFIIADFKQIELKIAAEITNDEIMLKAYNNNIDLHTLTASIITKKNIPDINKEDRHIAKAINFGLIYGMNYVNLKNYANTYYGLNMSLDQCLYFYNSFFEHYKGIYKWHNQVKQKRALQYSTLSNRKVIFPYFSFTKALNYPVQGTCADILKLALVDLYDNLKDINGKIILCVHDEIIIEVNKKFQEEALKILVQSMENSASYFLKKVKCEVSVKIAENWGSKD

## CC(C)CC(C(=O)O)N1C(=O)C2C3C=CC(C2C1=O)C1C(=O)N(C(CC(C)C)C(=O)O)C(=O)C31 (centres unmarked) [KU0193449]
[1]
  DNA Pol: 28
'DNA Pol' (screen value)
  DNA Pol: 28
DRC-1, concentration 2.5
  % inhibition Apo pol 10' 2.5: 0%
  % inhibition Apol 90' 2.5: 5.482%
  % inhibition apPOL 180' 2.5: 11.5947%
DRC-1, concentration 5
  % inhibition Apo pol 10' 5: 0.7522%
  % inhibition Apol 90' 5: 4.361%
  % inhibition apPOL 180' 5: 8.787%
DRC-1, concentration 10
  % inhibition Apo pol 10' 10: 13.4113%
  % inhibition Apol 90' 10: 18.2004%
  % inhibition apPOL 180' 10: 22.2545%
DRC-1, concentration 20
  % inhibition Apo pol 10' 20: 21.694%
  % inhibition Apol 90' 20: 26.7933%
  % inhibition apPOL 180' 20: 29.0446%
DRC-1, concentration 40
  % inhibition Apo pol 10' 40: 38.6815%
  % inhibition Apol 90' 40: 43.0787%
  % inhibition apPOL 180' 40: 41.2526%
DRC-1, concentration 80
  % inhibition Apo pol 10' 80: 61.0106%
  % inhibition Apol 90' 80: 61.6554%
  % inhibition apPOL 180' 80: 55.1992%
DRC-2, concentration 20
  % inhibition Apo pol 5': 13%
  % inhibition Apol 40': 20%
  % inhibition apPOL 180': 13%
  % inhibition Apo pol 5' 20: 13%
  % inhibition Apol 40' 20: 20%
  % inhibition ApPOL 90' 20: 20%
  % inhibition apPOL 180' 20: 13%
DRC-2, 90', concentration 20
  % inhibition ApPOL 90': 20%
DRC-2, concentration 2.5
  % inhibition Apo pol 5' 2.5: -1.41%
  % inhibition Apol 40' 2.5: -0.315%
  % inhibition ApPOL 90' 2.5: -0.778%
  % inhibition apPOL 180' 2.5: -5%
DRC-2, concentration 5
  % inhibition Apo pol 5' 5: 2.69%
  % inhibition Apol 40' 5: 4.49%
  % inhibition ApPOL 90' 5: 4.24%
  % inhibition apPOL 180' 5: -2.57%
DRC-2, concentration 10
  % inhibition Apo pol 5' 10: 10%
  % inhibition Apol 40' 10: 12%
  % inhibition ApPOL 90' 10: 11%
  % inhibition apPOL 180' 10: 5%
DRC-2, concentration 40
  % inhibition Apo pol 5' 40: 23%
  % inhibition Apol 40' 40: 33%
  % inhibition ApPOL 90' 40: 34%
  % inhibition apPOL 180' 40: 28%
DRC-2, concentration 80
  % inhibition Apo pol 5' 80: 31%
  % inhibition Apol 40' 80: 49%
  % inhibition ApPOL 90' 80: 51%
  % inhibition apPOL 180' 80: 47%

## COc1ccccc1CC(=O)N1CCc2c(nc3cc(-c4ccccc4Cl)[nH]n3c2=O)C1 [Molecule 49, COc1ccccc1CC(=O)N1CCc2c(C1)nc1n(c2=O)[nH]c(c1)c1ccccc1Cl]
[1]
  DNA Pol: 46
'DNA Pol' (screen value)
  DNA Pol: 46
DRC-1, concentration 2.5
  % inhibition Apo pol 10' 2.5: 7.56%
  % inhibition Apol 90' 2.5: -3.41%
  % inhibition apPOL 180' 2.5: -9%
DRC-1, concentration 5
  % inhibition Apo pol 10' 5: 17%
  % inhibition Apol 90' 5: 2.19%
  % inhibition apPOL 180' 5: -5.67%
DRC-1, concentration 10
  % inhibition Apo pol 10' 10: 40%
  % inhibition Apol 90' 10: 20%
  % inhibition apPOL 180' 10: 8%
DRC-1, concentration 20
  % inhibition Apo pol 10' 20: 65%
  % inhibition Apol 90' 20: 40%
  % inhibition apPOL 180' 20: 20%
DRC-1, concentration 40
  % inhibition Apo pol 10' 40: 80%
  % inhibition Apol 90' 40: 68%
  % inhibition apPOL 180' 40: 52%
DRC-1, concentration 80
  % inhibition Apo pol 10' 80: 74%
  % inhibition Apol 90' 80: 71%
  % inhibition apPOL 180' 80: 59%
DRC-2, concentration 40
  % inhibition Apo pol 5': 56%
  % inhibition apPOL 180': 56%
  % inhibition Apo pol 5' 40: 56%
  % inhibition Apol 40' 40: 64%
  % inhibition ApPOL 90' 40: 63%
  % inhibition apPOL 180' 40: 56%
DRC-2, concentration 5
  % inhibition Apol 40': 20%
  % inhibition Apo pol 5' 5: 16%
  % inhibition Apol 40' 5: 20%
  % inhibition ApPOL 90' 5: 18%
  % inhibition apPOL 180' 5: 12%
DRC-2, concentration 10
  % inhibition Apol 40': 44%
  % inhibition Apo pol 5' 10: 38%
  % inhibition Apol 40' 10: 44%
  % inhibition ApPOL 90' 10: 43%
  % inhibition apPOL 180' 10: 34%
DRC-2, concentration 20
  % inhibition Apol 40': 56%
  % inhibition apPOL 180': 44%
  % inhibition Apo pol 5' 20: 49%
  % inhibition Apol 40' 20: 56%
  % inhibition ApPOL 90' 20: 54%
  % inhibition apPOL 180' 20: 44%
DRC-2, concentration 80
  % inhibition apPOL 180': 52%
  % inhibition Apo pol 5' 80: 41%
  % inhibition Apol 40' 80: 57%
  % inhibition ApPOL 90' 80: 58%
  % inhibition apPOL 180' 80: 52%
DRC-2, concentration 2.5
  % inhibition Apo pol 5' 2.5: 3.77%
  % inhibition Apol 40' 2.5: 3.38%
  % inhibition ApPOL 90' 2.5: 3.2%
  % inhibition apPOL 180' 2.5: -1%
First dose-response, 10', concentration 10
  % inhibition Apo pol 10': 40%
First dose-response, 90', concentration 10
  % inhibition Apol 90': 20%
First dose-response, 90', concentration 20
  % inhibition Apol 90': 40%
First dose-response, concentration 20
  % inhibition apPOL 180': 20%
First dose-response, concentration 40
  % inhibition apPOL 180': 52%

## Cc1ccsc1Cn1c(C)ccc1C [Molecule 70, Cc1ccsc1Cn1c(C)ccc1C]
[1]
  DNA Pol: 77
'DNA Pol' (screen value)
  DNA Pol: 77
DRC-1, concentration 2.5
  % inhibition Apo pol 10' 2.5: 0.1737%
  % inhibition Apol 90' 2.5: -5.458%
  % inhibition apPOL 180' 2.5: -10.1468%
DRC-1, concentration 5
  % inhibition Apo pol 10' 5: 5.431%
  % inhibition Apol 90' 5: -2.713%
  % inhibition apPOL 180' 5: -7.921%
DRC-1, concentration 10
  % inhibition Apo pol 10' 10: 19.8551%
  % inhibition Apol 90' 10: 8.027%
  % inhibition apPOL 180' 10: -1.934%
DRC-1, concentration 20
  % inhibition Apo pol 10' 20: 37.488%
  % inhibition Apol 90' 20: 21.1278%
  % inhibition apPOL 180' 20: 6.387%
DRC-1, concentration 40
  % inhibition Apo pol 10' 40: 56.0716%
  % inhibition Apol 90' 40: 39.127%
  % inhibition apPOL 180' 40: 21.8537%
DRC-1, concentration 80
  % inhibition Apo pol 10' 80: 76.6416%
  % inhibition Apol 90' 80: 69.1434%
  % inhibition apPOL 180' 80: 54.6421%
DRC-2, concentration 80
  % inhibition Apol 40': 62%
  % inhibition apPOL 180': 62%
  % inhibition Apo pol 5' 80: 47%
  % inhibition Apol 40' 80: 62%
  % inhibition ApPOL 90' 80: 64%
  % inhibition apPOL 180' 80: 62%
DRC-2, concentration 2.5
  % inhibition apPOL 180': -6%
  % inhibition Apo pol 5' 2.5: -3.3%
  % inhibition Apol 40' 2.5: -1.81%
  % inhibition ApPOL 90' 2.5: -3%
  % inhibition apPOL 180' 2.5: -6%
DRC-2, concentration 5
  % inhibition apPOL 180': -6%
  % inhibition Apo pol 5' 5: 5.66%
  % inhibition Apol 40' 5: 4%
  % inhibition ApPOL 90' 5: -0.174%
  % inhibition apPOL 180' 5: -6%
DRC-2, concentration 10
  % inhibition Apo pol 5' 10: 20%
  % inhibition Apol 40' 10: 18%
  % inhibition ApPOL 90' 10: 14%
  % inhibition apPOL 180' 10: 5.64%
DRC-2, concentration 20
  % inhibition Apo pol 5' 20: 32%
  % inhibition Apol 40' 20: 33%
  % inhibition ApPOL 90' 20: 28%
  % inhibition apPOL 180' 20: 16%
DRC-2, concentration 40
  % inhibition Apo pol 5' 40: 48%
  % inhibition Apol 40' 40: 56%
  % inhibition ApPOL 90' 40: 54%
  % inhibition apPOL 180' 40: 45%
